The values that follow come from patent US11312719B2, “9-substituted amino triazolo quinazoline derivatives as adenosine receptor antagonists, pharmaceutical compositions and their use” (Merck Sharp & Dohme Corp., priority 2018, dated 2022).

For one test, the target named is human A2A receptors (Homo sapiens (Human), UniProt P29274). In words: A2A antagonism in cAMP cell-based assay (LANCE cAMP, HEK293). Conditions: HEK293 cells expressing human A2A receptor. As to the method:
(§1) Measurement of A2A and A2B Antagonism in cAMP Cell-Based Assay
(§2) The ability of compounds to antagonize human A2A and A2B adenosine receptors was determined using a kit to measure changes in intracellular cyclic AMP levels (LANCE cAMP 384 Kit, Perkin Elmer, Cat. No. AD0264). HEK293 cells recombinantly expressing either human A2A or A2B receptors, previously frozen in Recovery Medium (Life Technologies, Cat. No. 12648-010) were thawed and diluted into stimulation buffer (HBSS (Hyclone SH 30268.01), 5 mM HEPES (Gibco 15630-106), 200 nM rolipram (Tocris, Cat. No. 0905), and 1.5% (V/v) BSA stabilizer (kit component). The cell suspension was centrifuged at 200×g for 10 min and then resuspended in stimulation buffer, supplemented with a 1:10 000 dilution of Alexa Fluor 647 anti-cAMP antibody, to a density of 6.0×10^5 cells/mL. A Labcyte Echo 550 acoustic dispenser was used to transfer up to 25 nL of test compound dissolved in DMSO into the wells of a dry Optiplate-384 plate (Perkin Elmer, Cat. No. 6008289). All subsequent liquid additions were performed using a multichannel pipettor. Next, 5 μL of the cell suspension was added to the wells of the Optiplate-384 and incubated for 30 min. at 37° C. and 5% CO2 in a humidified environment. After this time 5 μL of either 300 nM or 600 nM adenosine (Sigma Cat. No. A9251) for A2A and A2B respectively was added and incubated for 30 minutes at 37° C. and 5% CO2 in a humidified environment. At this time detection mix was prepared by combining the LANCE Eu-W8044 labeled streptavidin and Biotin-cAMP in detection buffer according to the manufacturers protocol. 10 μL of the detection mix was added to each well of the Optiplate-384 which was covered with a plate seal and incubated under ambient conditions for 2 hours prior to reading the plate using an Envision (Perkin Elmer, Waltham, Mass.) multimode plate reader. Data was normalized by defining minimal effect as stimulation in the presence of 0.25% (v/v) DMSO and maximal effect as stimulation in the presence of 1 μM ZM241385 (Cayman, Cat. No. 1036). Curve fitting of the percent effect data versus the log of compound concentration used a 4-parameter concentration response curve fitting algorithm to calculate IC50 values. Compound concentrations tested were 10,000, 3,333, 1,111, 370.4, 123.4, 41.2, 13.7, 4.6, 1.5 and 0.5 nM with 0.25% residual DMSO.

Another test deals with human A2B receptors (Homo sapiens (Human), UniProt P29275). In words: A2B antagonism in cAMP cell-based assay (LANCE cAMP, HEK293). Conditions: HEK293 cells expressing human A2B receptor. As to the method:
as §1, §2
(In general: TR-FRET usually uses a lanthanide donor and a delayed reading to cut background.)

human A2B receptors, sequence (P29275 whole entry): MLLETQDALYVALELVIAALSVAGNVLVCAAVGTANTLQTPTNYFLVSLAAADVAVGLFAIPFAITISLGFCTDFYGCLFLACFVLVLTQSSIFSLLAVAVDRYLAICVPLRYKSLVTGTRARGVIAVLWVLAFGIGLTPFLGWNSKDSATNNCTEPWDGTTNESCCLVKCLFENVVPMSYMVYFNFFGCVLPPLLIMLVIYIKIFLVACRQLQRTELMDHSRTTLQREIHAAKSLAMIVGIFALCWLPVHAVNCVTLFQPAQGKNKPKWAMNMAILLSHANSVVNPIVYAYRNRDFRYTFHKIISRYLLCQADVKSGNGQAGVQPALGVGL
human A2A receptors, sequence (P29274 whole entry): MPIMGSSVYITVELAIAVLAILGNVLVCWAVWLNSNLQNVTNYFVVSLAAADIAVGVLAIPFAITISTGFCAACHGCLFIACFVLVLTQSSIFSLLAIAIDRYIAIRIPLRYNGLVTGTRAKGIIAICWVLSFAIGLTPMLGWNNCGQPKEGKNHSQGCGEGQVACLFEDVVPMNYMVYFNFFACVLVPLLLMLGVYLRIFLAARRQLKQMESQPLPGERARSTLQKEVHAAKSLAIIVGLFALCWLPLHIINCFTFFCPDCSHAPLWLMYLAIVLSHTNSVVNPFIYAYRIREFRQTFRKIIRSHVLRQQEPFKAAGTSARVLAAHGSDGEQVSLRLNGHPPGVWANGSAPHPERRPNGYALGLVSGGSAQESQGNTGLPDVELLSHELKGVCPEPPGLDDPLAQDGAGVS

Take `COc1cc(F)cc2c1nc(N)n1nc(C3CC(C)CN(c4cnn(CC(C)(C)O)c4)C3)nc21` (single isomer, unassigned) [Example 159, 1-(4-((3R,5S or 3S,5R)-3-(5-amino-9-fluoro-7-methoxy-[1,2,4]triazolo[1,5-c]quinazolin-2-yl)-5-methylpiperidin-1-yl)-1H-pyrazol-1-yl)-2-methylpropan-2-ol]: the results for the concentration for half-maximal inhibition (IC50) on human A2A receptors and against human A2B receptors were 1 nM and 29.3 nM, respectively.

With `COc1cc(F)cc2c1nc(N)n1nc(C3CC(C)CN(c4cnn(CC(C)(C)O)c4)C3)nc21` (single isomer, unassigned) [Example 160, 1-(4-((3S,5R or 3R,5S)-3-(5-amino-9-fluoro-7-methoxy-[1,2,4]triazolo[1,5-c]quinazolin-2-yl)-5-methylpiperidin-1-yl)-1H-pyrazol-1-yl)-2-methylpropan-2-ol], the 50% inhibitory concentration (IC50) – broadly, the midpoint of a concentration-inhibition curve – was 8.7 nM on human A2A receptors and 648 nM against human A2B receptors.

For `CC1CC(c2nc3c4cc(F)cc(F)c4nc(N)n3n2)CN(c2cnn(CC(C)(C)O)c2)C1` (single isomer, unassigned) [Example 163, 1-(4-((3R,5S or 3S,5R)-3-(5-amino-7,9-difluoro-[1,2,4]triazolo[1,5-c]quinazolin-2-yl)-5-methylpiperidin-1-yl)-1H-pyrazol-1-yl)-2-methylpropan-2-ol], the half-maximal inhibitory concentration (IC50) amounted to 36 nM at human A2A receptors and 5310 nM on human A2B receptors.

In the case of `CC1CC(c2nc3c4cc(F)cc(F)c4nc(N)n3n2)CN(c2cnn(CC(C)(C)O)c2)C1` (single isomer, unassigned) [Example 164, 1-(4-((3S,5R or 3R,5S)-3-(5-amino-7,9-difluoro-[1,2,4]triazolo[1,5-c]quinazolin-2-yl)-5-methylpiperidin-1-yl)-1H-pyrazol-1-yl)-2-methylpropan-2-ol], the values for the 50% inhibitory concentration (IC50) against human A2A receptors and at human A2B receptors were 1.9 nM and 47.7 nM, respectively.

For the compound `COc1cc(F)cc2c1nc(N)n1nc(C3CC(C)CN(c4cnn(C(C)(C)CO)c4)C3)nc21` (single isomer, unassigned) [Example 165, 2-(4-((3R,5S or 3S,5R)-3-(5-amino-9-fluoro-7-methoxy-[1,2,4]triazolo[1,5-c]quinazolin-2-yl)-5-methylpiperidin-1-yl)-1H-pyrazol-1-yl)-2-methylpropan-1-ol], the IC50 on human A2A receptors was found to be 0.8 nM; at human A2B receptors it was 6.4 nM.

In the case of `COc1cc(F)cc2c1nc(N)n1nc(C3CC(C)CN(c4cnn(C(C)(C)CO)c4)C3)nc21` (single isomer, unassigned) [Example 166, 2-(4-((3S,5R or 3R,5S)-3-(5-amino-9-fluoro-7-methoxy-[1,2,4]triazolo[1,5-c]quinazolin-2-yl)-5-methylpiperidin-1-yl)-1H-pyrazol-1-yl)-2-methylpropan-1-ol], the IC50 is 20 nM on human A2A receptors and 2770 nM at human A2B receptors.

Regarding `Cc1nn(CC(C)(C)O)cc1N1CC(C)CC(c2nc3c4cc(F)cc(F)c4nc(N)n3n2)C1` (single isomer, unassigned) [Example 167, 1-(4-((3R,5S or 3S,5R)-3-(5-amino-7,9-difluoro-[1,2,4]triazolo[1,5-c]quinazolin-2-yl)-5-methylpiperidin-1-yl)-3-methyl-1H-pyrazol-1-yl)-2-methylpropan-2-ol], the IC50 turned out to be 0.6 nM at human A2A receptors and 46 nM at human A2B receptors.

On to `Cc1nn(CC(C)(C)O)cc1N1CC(C)CC(c2nc3c4cc(F)cc(F)c4nc(N)n3n2)C1` (single isomer, unassigned) [Example 168, 1-(4-((3S,5R or 3R,5S)-3-(5-amino-7,9-difluoro-[1,2,4]triazolo[1,5-c]quinazolin-2-yl)-5-methylpiperidin-1-yl)-3-methyl-1H-pyrazol-1-yl)-2-methylpropan-2-ol], for which the values for the IC50 against human A2A receptors and against human A2B receptors were 23.9 nM and 4720 nM, respectively.

As for `COc1cc2nc(N)n3nc(C4CC(C)CN(c5cn(C(C)(C)CO)nc5C)C4)nc3c2cc1F` (single isomer, unassigned) [Example 169, 2-(4-((3S,5S or 3S,5R)-3-(5-amino-9-fluoro-8-methoxy-[1,2,4]triazolo[1,5-c]quinazolin-2-yl)-5-methylpiperidin-1-yl)-3-methyl-1H-pyrazol-1-yl)-2-methylpropan-1-ol], the IC50 on human A2A receptors was found to be 96.5 nM; at human A2B receptors, 3380 nM.

Turning to `COc1cc2nc(N)n3nc(C4CC(C)CN(c5cn(C(C)(C)CO)nc5C)C4)nc3c2cc1F` (single isomer, unassigned) [Example 170, 2-(4-((3S,5R or 3R,5S)-3-(5-amino-9-fluoro-8-methoxy-[1,2,4]triazolo[1,5-c]quinazolin-2-yl)-5-methylpiperidin-1-yl)-3-methyl-1H-pyrazol-1-yl)-2-methylpropan-1-ol], the IC50 against human A2A receptors was found to be 0.8 nM; against human A2B receptors it was 14.1 nM.

For the compound `COc1cc2nc(N)n3nc(C4CC(C)CN(c5cnn(C(C)(C)CO)c5)C4)nc3c2cc1F` (single isomer, unassigned) [Example 171, 2-(4-((3R,5S or 3S,5R)-3-(5-amino-9-fluoro-8-methoxy-[1,2,4]triazolo[1,5-c]quinazolin-2-yl)-5-methylpiperidin-1-yl)-1H-pyrazol-1-yl)-2-methylpropan-1-ol], the IC50 worked out at 1.2 nM against human A2A receptors and 11.3 nM on human A2B receptors.

For the compound `COc1cc2nc(N)n3nc(C4CC(C)CN(c5cnn(C(C)(C)CO)c5)C4)nc3c2cc1F` (single isomer, unassigned) [Example 172, 2-(4-((3S,5R or 3R,5S)-3-(5-amino-9-fluoro-8-methoxy-[1,2,4]triazolo[1,5-c]quinazolin-2-yl)-5-methylpiperidin-1-yl)-1H-pyrazol-1-yl)-2-methylpropan-1-ol], the IC50 on human A2A receptors amounted to 60.5 nM. Also, the “A2B cAMP % Inh. @10000 nM” value at human A2B receptors (at 10000 nM) was found to be 14% Inh.

Regarding `COc1cc(F)cc2c1nc(N)n1nc(C3CC(C)CN(c4cnn(CC(C)(C)O)c4C)C3)nc21` (single isomer, unassigned) [Example 173, 1-(4-((3R,5S or 3S,5R)-3-(5-amino-9-fluoro-7-methoxy-[1,2,4]triazolo[1,5-c]quinazolin-2-yl)-5-methylpiperidin-1-yl)-5-methyl-1H-pyrazol-1-yl)-2-methylpropan-2-ol], the half-maximal inhibitory concentration (IC50) on human A2A receptors stood at 20.7 nM; on human A2B receptors, 2020 nM.

Take `COc1cc(F)cc2c1nc(N)n1nc(C3CC(C)CN(c4cnn(CC(C)(C)O)c4C)C3)nc21` (single isomer, unassigned) [Example 174, 1-(4-((3S,5R or 3R,5S)-3-(5-amino-9-fluoro-7-methoxy-[1,2,4]triazolo[1,5-c]quinazolin-2-yl)-5-methylpiperidin-1-yl)-5-methyl-1H-pyrazol-1-yl)-2-methylpropan-2-ol]: the IC50 on human A2A receptors came to 0.6 nM; at human A2B receptors, 30.7 nM.

As for `COc1cc(F)cc2c1nc(N)n1nc(C3CC(C)CN(c4cn(C(C)(C)CO)nc4C)C3)nc21` (single isomer, unassigned) [Example 175, 2-(4-((3R,5S or 3S,5R)-3-(5-amino-9-fluoro-7-methoxy-[1,2,4]triazolo[1,5-c]quinazolin-2-yl)-5-methylpiperidin-1-yl)-3-methyl-1H-pyrazol-1-yl)-2-methylpropan-1-ol], the 50% inhibitory concentration (IC50) was 30.2 nM against human A2A receptors and 2000 nM on human A2B receptors.
